The text below walks through data of US20250051338A1, “TYK2 DEGRADERS AND USES THEREOF” (Kymera Therapeutics, Inc., priority 2021, published 2025).

In general, DC50 refers to the concentration giving 50% degradation.

Holding throughout (format): cell-based
The target in experiment [1] is T1, TYK2 (Homo sapiens, UniProt P29597). The experiment can be described thus: TYK2 degradation MSD assay in human PBMC cells. On the set-up: endogenous in cells; host or cells: human PBMC. Particulars: 4 to 24 hours incubation, read-out: TYK2 MSD DC50 rating in human PBMC. The method in brief:
(§1)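 0.4 million cells/well; cpd 9-dose 1:3 titration, top 1–10 μM; 4–24 h, 37° C, 5% CO2; RIPA lysis; TYK2 capture/detection sandwich on MSD, SULFO-TAG anti-rabbit secondary; DC50 via 4-parameter fit.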

Experiment [2] deals with T1, TYK2. The experiment can be described thus: TYK2 degradation MSD assay in EBV-B cells. On the set-up: endogenous in cells; host or cells: EBV-B cells. Conditions: 4 to 24 hours incubation, read-out: TYK2 MSD DC50 rating in EBV-B. The method, boiled down: as §1
Experiment [3] addresses T1, TYK2. Nature of the experiment: TYK2 degradation MSD assay in OCI-LY10 cells. Details: endogenous in cells; host or cells: EBV-B cells. Conditions: 4 to 24 hours incubation, read-out: TYK2 MSD DC50 rating in OCI-LY10. The method, boiled down:
as §1

The structures appear in SMILES notation.

T1 sequence (P29597 whole entry): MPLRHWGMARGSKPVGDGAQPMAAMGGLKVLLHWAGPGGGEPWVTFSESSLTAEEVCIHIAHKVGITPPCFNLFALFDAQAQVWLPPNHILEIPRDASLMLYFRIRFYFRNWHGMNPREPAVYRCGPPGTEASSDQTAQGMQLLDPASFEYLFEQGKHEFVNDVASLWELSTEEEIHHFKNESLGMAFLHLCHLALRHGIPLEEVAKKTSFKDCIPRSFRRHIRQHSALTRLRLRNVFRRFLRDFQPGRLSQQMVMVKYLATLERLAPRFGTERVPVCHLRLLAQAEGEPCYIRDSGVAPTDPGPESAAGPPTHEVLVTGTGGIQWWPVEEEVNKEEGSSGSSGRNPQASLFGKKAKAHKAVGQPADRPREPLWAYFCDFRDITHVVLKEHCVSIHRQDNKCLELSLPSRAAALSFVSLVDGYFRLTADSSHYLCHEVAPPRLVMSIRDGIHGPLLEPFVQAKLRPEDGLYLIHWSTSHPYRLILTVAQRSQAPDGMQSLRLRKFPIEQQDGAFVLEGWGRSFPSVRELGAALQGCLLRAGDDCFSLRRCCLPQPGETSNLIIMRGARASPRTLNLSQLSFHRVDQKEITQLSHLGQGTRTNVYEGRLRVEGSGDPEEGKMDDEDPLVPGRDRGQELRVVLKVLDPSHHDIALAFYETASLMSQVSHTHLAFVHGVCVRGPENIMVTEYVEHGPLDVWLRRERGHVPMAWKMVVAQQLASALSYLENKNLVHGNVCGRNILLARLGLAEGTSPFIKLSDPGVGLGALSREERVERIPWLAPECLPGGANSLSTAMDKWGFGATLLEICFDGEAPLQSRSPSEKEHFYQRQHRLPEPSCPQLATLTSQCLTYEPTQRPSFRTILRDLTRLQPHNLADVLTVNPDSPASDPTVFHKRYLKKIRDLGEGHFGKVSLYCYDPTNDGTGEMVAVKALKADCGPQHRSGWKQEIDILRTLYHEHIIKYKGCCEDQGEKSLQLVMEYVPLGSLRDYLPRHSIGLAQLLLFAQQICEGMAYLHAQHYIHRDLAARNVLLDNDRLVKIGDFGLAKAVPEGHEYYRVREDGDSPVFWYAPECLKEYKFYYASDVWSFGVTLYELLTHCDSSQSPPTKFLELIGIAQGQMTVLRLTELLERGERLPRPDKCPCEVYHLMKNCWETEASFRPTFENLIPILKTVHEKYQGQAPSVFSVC

In the case of `Cc1cc(C)cc(Nc2cc(NCCCCCCc3ccc4c(c3)n(C)c(=O)n4C3CCC(=O)NC3=O)c3ncc(C(=O)N[C@@H]4C[C@@H]4F)n3n2)c1` (stereo partly drawn) [Example K401], the DC50 in experiment [1], in experiment [2] and in experiment [3] was above 100 nM in each case.
Turning to `Cc1cc(C)cc(Nc2cc(NCCCCc3ccc4c(c3)n(C)c(=O)n4C3CCC(=O)NC3=O)c3ncc(C(=O)N[C@@H]4C[C@@H]4F)n3n2)c1` (stereo partly drawn) [Example K402], the DC50 in experiment [1], in experiment [2] and in experiment [3] was above 100 nM each time.
Take `Cn1c(=O)n(C2CCC(=O)NC2=O)c2cccc(C3CN(C4CCN(Cc5ccc(-c6cccc(Nc7ccc8ncc(C(=O)NC9CC9)n8n7)c6)nc5)CC4)C3)c21` (stereo not drawn) [Example K403]: the DC50 in experiment [1], in experiment [2] and in experiment [3] was above 100 nM each time.
Regarding `Cn1c(=O)n(C2CCC(=O)NC2=O)c2ccc(C#CC3CCN(Cc4ccc(-c5cccc(Nc6ccc7ncc(C(=O)NC8CC8)n7n6)c5)nc4)CC3)cc21` (stereo not drawn) [Example K404], the DC50 in experiment [1], in experiment [2] and in experiment [3] was above 100 nM each time.
Regarding `Cn1c(=O)n(C2CCC(=O)NC2=O)c2ccc(C3CN(C4CCN(Cc5ccc(-c6cccc(Nc7ccc8ncc(C(=O)NC9CC9)n8n7)c6)nc5)CC4)C3)cc21` (stereo not drawn) [Example K405], the DC50 in experiment [1], in experiment [2] and in experiment [3] was above 100 nM throughout.
With `Cn1c(=O)n(C2CCC(=O)NC2=O)c2ccc(N3CCN(Cc4ccc(-c5cccc(Nc6ccc7ncc(C(=O)NC8CC8)n7n6)c5)nc4)CC3)cc21` (stereo not drawn) [Example K406], the DC50 in experiment [1], in experiment [2] and in experiment [3] was above 100 nM in each case.
With `CNc1cc(Nc2cccn(-c3ccc(C(=O)N4CCC(OCCCc5ccc6c(c5)n(C)c(=O)n6C5CCC(=O)NC5=O)CC4)cn3)c2=O)nn2c(C(=O)N[C@@H]3C[C@@H]3F)cnc12` (stereo partly drawn) [Example K407], the DC50 in experiment [1] is above 100 nM; in experiment [2] it was above 100 nM; in experiment [3] it was below 1 nM.
Regarding `CNc1cc(Nc2cccn(-c3ccc(C(=O)N4CCC(CN5CCC(c6ccc7c(c6)n(C)c(=O)n7C6CCC(=O)NC6=O)CC5)CC4)cn3)c2=O)nn2c(C(=O)N[C@@H]3C[C@@H]3F)cnc12` (stereo partly drawn) [Example K408], the DC50 was above 100 nM in experiment [1], above 100 nM in experiment [2] and below 1 nM in experiment [3].
Take `CNc1cc(Nc2cccn(-c3ccc(C(=O)N4CCC5(CCN(c6cnc(C#Cc7ccc8c(c7)n(C)c(=O)n8C7CCC(=O)NC7=O)nc6)C5=O)C4)cn3)c2=O)nn2c(C(=O)N[C@@H]3C[C@@H]3F)cnc12` (stereo partly drawn) [Example K409]: the DC50 in experiment [1] was above 100 nM; in experiment [2], above 100 nM; in experiment [3] it was 1 to 10 nM.
Consider `CNc1cc(Nc2cccn(-c3ccc(C(=O)N4CCC(N5CC(c6ccc7c(c6)n(C)c(=O)n7C6CCC(=O)NC6=O)C5)CC4)cn3)c2=O)nn2c(C(=O)N[C@@H]3C[C@@H]3F)cnc12` (stereo partly drawn) [Example K410], for which the values for the DC50 in experiment [1], in experiment [2] and in experiment [3] were above 100 nM, above 100 nM and below 1 nM, respectively.
For the molecule `Cn1c(=O)n(C2CCC(=O)NC2=O)c2cccc(C#CC3CCN(Cc4ccc(-c5cccc(Nc6ccc7ncc(C(=O)NC8CC8)n7n6)c5)nc4)CC3)c21` (stereo not drawn) [Example K412], the DC50 in experiment [1], in experiment [2] and in experiment [3] was above 100 nM each time.
Consider `CNc1cc(Nc2cccc(-c3ccc(CN4CCC(c5ccc(-c6ccc7c(c6)n(C)c(=O)n7C6CCC(=O)NC6=O)cc5)CC4)cn3)c2)nn2c(C(=O)NC3CC3F)cnc12` (stereo not drawn) [Example K413], for which the values for the DC50 in experiment [1], in experiment [2] and in experiment [3] were above 100 nM, above 100 nM and below 1 nM, respectively.
Turning to `CNc1cc(Nc2cccc(-c3ccc(CN4CCC(N5CC(c6cccc7c6n(C)c(=O)n7C6CCC(=O)NC6=O)C5)CC4)cn3)c2)nn2c(C(=O)N[C@@H]3C[C@@H]3F)cnc12` (stereo partly drawn) [Example K414], the DC50 in experiment [1] was above 100 nM; in experiment [2], above 100 nM; in experiment [3], below 1 nM.
For `Cn1c(=O)n(C2CCC(=O)NC2=O)c2ccc(-c3ccc(N4CCN(Cc5ccc(-c6cccc(Nc7ccc8ncc(C(=O)NC9CC9)n8n7)c6)nc5)CC4)cc3)cc21` (stereo not drawn) [Example K415], the DC50 was above 100 nM in experiment [1], 1 to 10 nM in experiment [2] and above 100 nM in experiment [3].
As for `CNc1cc(Nc2cccn(-c3ccc(C(=O)N4CCC5(CN(CC#Cc6ccc7c(c6)n(C)c(=O)n7C6CCC(=O)NC6=O)C5)C4)cn3)c2=O)nn2c(C(=O)N[C@@H]3C[C@@H]3F)cnc12` (stereo partly drawn) [Example K416], the DC50 in experiment [1], in experiment [2] and in experiment [3] was above 100 nM in each case.
For the molecule `CNc1cc(Nc2cccn(-c3ccc(C(=O)N4CCN(CC#Cc5ccc6c(c5)n(C)c(=O)n6C5CCC(=O)NC5=O)CC4)cn3)c2=O)nn2c(C(=O)N[C@@H]3C[C@@H]3F)cnc12` (stereo partly drawn) [Example K417], the DC50 in experiment [1], in experiment [2] and in experiment [3] was above 100 nM each time.
Turning to `CNc1cc(Nc2cccn(-c3ccc(C(=O)N4CC5(CC(CN6CCN(c7ccc8c(c7)n(C)c(=O)n8C7CCC(=O)NC7=O)CC6)CO5)C4)cn3)c2=O)nn2c(C(=O)N[C@@H]3C[C@@H]3F)cnc12` (stereo partly drawn) [Example K418], the DC50 is above 100 nM in experiment [1], above 100 nM in experiment [2] and below 1 nM in experiment [3].
Regarding `CNc1cc(Nc2cccn(-c3ccc(C(=O)N4CC(N5CCN(c6ccc7c(c6)n(C)c(=O)n7C6CCC(=O)NC6=O)CC5)C4)cn3)c2=O)nn2c(C(=O)N[C@@H]3C[C@@H]3F)cnc12` (stereo partly drawn) [Example K419], the DC50 in experiment [1] was above 100 nM; in experiment [2], above 100 nM; in experiment [3] it was below 1 nM.
Regarding `CNc1cc(Nc2cccn(-c3ccc(C(=O)N4CC5(CN(CCC#Cc6ccc7c(c6)n(C)c(=O)n7C6CCC(=O)NC6=O)CCO5)C4)cn3)c2=O)nn2c(C(=O)N[C@@H]3C[C@@H]3F)cnc12` (stereo partly drawn) [Example K420], the DC50 in experiment [1] was above 100 nM; in experiment [2], above 100 nM; in experiment [3], below 1 nM.
As for `CNc1cc(Nc2cccn(-c3ccc(C(=O)N4CCC(OCC#Cc5cccc6c5n(C)c(=O)n6C5CCC(=O)NC5=O)CC4)cn3)c2=O)nn2c(C(=O)N[C@@H]3C[C@@H]3F)cnc12` (stereo partly drawn) [Example K421], the DC50 in experiment [1] is above 100 nM; in experiment [2], above 100 nM; in experiment [3] it was 1 to 10 nM.
`CNc1cc(Nc2cccn(-c3ccc(C(=O)N4CCC(CN5CCCN(c6ccc(-c7ccc8c(c7)n(C)c(=O)n8C7CCC(=O)NC7=O)cn6)CC5)CC4)cn3)c2=O)nn2c(C(=O)N[C@@H]3C[C@@H]3F)cnc12` (stereo partly drawn) [Example K422]: the DC50 is above 100 nM in experiment [1], above 100 nM in experiment [2] and below 1 nM in experiment [3].
In the case of `CNc1cc(Nc2cccn(-c3ccc(C(=O)N4CCN(C(=O)C5CC(N6CCC(OCCCc7ccc8c(c7)n(C)c(=O)n8C7CCC(=O)NC7=O)CC6)C5)CC4)cn3)c2=O)nn2c(C(=O)N[C@@H]3C[C@@H]3F)cnc12` (stereo partly drawn) [Example K423], the results for the DC50 in experiment [1], in experiment [2] and in experiment [3] were above 100 nM, above 100 nM and 1 to 10 nM, respectively.
Take `CNc1cc(Nc2cccn(-c3ccc(C(=O)C4CCC(C5CCN(c6ccc7c(c6)n(C)c(=O)n7C6CCC(=O)NC6=O)C5)CN4)cn3)c2=O)nn2c(C(=O)N[C@@H]3C[C@@H]3F)cnc12` (stereo partly drawn) [Example K424]: the DC50 in experiment [1], in experiment [2] and in experiment [3] was above 100 nM each time.
